Source: ChEMBL document CHEMBL1146892, “Pyrrolidine bis-cyclic guanidines with antimicrobial activity against drug-resistant Gram-positive pathogens identified from a mixture-based combinatorial library” (2006)
Values after ≈ are worked out from the molar mass of the structure shown.

Assays:
Assay type in all cases: functional
Escherichia coli = experiment: Antibacterial activity against Escherichia coli ATCC 25922
Staphylococcus aureus = experiment: Antibacterial activity against methicillin-resistant Staphylococcus aureus ATCC 33591
Enterococcus faecalis = experiment: Antibacterial activity against vancomycin-resistant Enterococcus faecalis ATCC 51299

| Structure (SMILES) | MBC (Escherichia coli) | MIC (Escherichia coli) | MBC (Staphylococcus aureus) | MIC (Staphylococcus aureus) | MBC (Enterococcus faecalis) | MIC (Enterococcus faecalis) |
| --- | --- | --- | --- | --- | --- | --- |
| C[C@H]1CN=C(N)N1CC1CCCN1C[C@@H](Cc1ccc2ccccc2c1)N1C[C@H](CC2CCCCC2)N(CCc2cc(C(F)(F)F)cc(C(F)(F)F)c2)C1=N (stereo not given in full) | 5 µg/mL (≈ 6.49 µM) | 5 µg/mL (≈ 6.49 µM) | < 2.5 µg/mL | < 2.5 µg/mL | < 2.5 µg/mL | < 2.5 µg/mL |
| CCCC[C@@H]1CN([C@@H](CC2CCCCC2)CN2CCCC2CN2C(N)=NC[C@@H]2Cc2ccccc2)C(=N)N1CC(C)c1ccc(CC(C)C)cc1 (stereo not given in full) | > 10 µg/mL | > 10 µg/mL | 2.5 µg/mL (≈ 3.59 µM) | < 2.5 µg/mL | < 2.5 µg/mL | < 2.5 µg/mL |
| N=C1N(CCc2cc(C(F)(F)F)cc(C(F)(F)F)c2)[C@H](CC2CCCCC2)CN1[C@H](Cc1ccc2ccccc2c1)CN1CCCC1CN1C(N)=NC[C@@H]1Cc1ccccc1 (stereo not given in full) | > 10 µg/mL | > 10 µg/mL | 2.5 µg/mL (≈ 2.96 µM) | < 2.5 µg/mL | > 10 µg/mL | < 2.5 µg/mL |
| N=C1N(CCc2cc(C(F)(F)F)cc(C(F)(F)F)c2)[C@H](CC2CCCCC2)CN1[C@H](CC1CCCCC1)CN1CCCC1CN1C(N)=NC[C@@H]1Cc1ccccc1 (stereo not given in full) | > 10 µg/mL | > 10 µg/mL | < 2.5 µg/mL | < 2.5 µg/mL | 2.5 µg/mL (≈ 3.12 µM) | 2.5 µg/mL (≈ 3.12 µM) |
| CCCC[C@@H]1CN([C@H](CC2CCCCC2)CN2CCCC2CN2C(N)=NC[C@@H]2C)C(=N)N1CCc1cc(C(F)(F)F)cc(C(F)(F)F)c1 (stereo not given in full) | > 10 µg/mL | > 10 µg/mL | < 2.5 µg/mL | < 2.5 µg/mL | > 10 µg/mL | > 10 µg/mL |
| CC(C)Cc1ccc(C(C)CN2C(=N)N([C@H](Cc3ccc4ccccc4c3)CN3CCCC3CN3C(N)=NC[C@@H]3Cc3ccccc3)C[C@@H]2CC2CCCCC2)cc1 (stereo not given in full) | > 10 µg/mL | > 10 µg/mL | < 2.5 µg/mL | < 2.5 µg/mL | > 10 µg/mL | < 2.5 µg/mL |
| CCCC[C@@H]1CN([C@H](Cc2ccc3ccccc3c2)CN2CCCC2CN2C(N)=NC[C@@H]2Cc2ccccc2)C(=N)N1CC(C)c1ccc(CC(C)C)cc1 (stereo not given in full) | > 10 µg/mL | > 10 µg/mL | 2.5 µg/mL (≈ 3.38 µM) | < 2.5 µg/mL | > 10 µg/mL | < 2.5 µg/mL |
| CC(C)Cc1ccc(C(C)CN2C(=N)N([C@@H](CC3CCCCC3)CN3CCCC3CN3C(N)=NC[C@@H]3Cc3ccccc3)C[C@H]2CC2CCCCC2)cc1 (stereo not given in full) | > 10 µg/mL | > 10 µg/mL | < 2.5 µg/mL | < 2.5 µg/mL | < 2.5 µg/mL | < 2.5 µg/mL |
| N=C1N(CCc2cc(C(F)(F)F)cc(C(F)(F)F)c2)[C@@H](CC2CCCCC2)CN1[C@@H](CC1CCCCC1)CN1CCCC1CN1C(N)=NC[C@@H]1Cc1ccccc1 (stereo not given in full) | > 10 µg/mL | > 10 µg/mL | < 2.5 µg/mL | < 2.5 µg/mL | > 10 µg/mL | < 2.5 µg/mL |
| CC(C)Cc1ccc(C(C)CN2C(=N)N([C@H](Cc3ccc4ccccc4c3)CN3CCCC3CN3C(N)=NC[C@@H]3Cc3ccccc3)C[C@H]2CC2CCCCC2)cc1 (stereo not given in full) | > 10 µg/mL | > 10 µg/mL | 2.5 µg/mL (≈ 3.2 µM) | < 2.5 µg/mL | > 10 µg/mL | < 2.5 µg/mL |
| CC(C)Cc1ccc(C(C)CN2C(=N)N([C@@H](CC3CCCCC3)CN3CCCC3CN3C(N)=NC[C@@H]3Cc3ccccc3)C[C@@H]2CC2CCCCC2)cc1 (stereo not given in full) | > 10 µg/mL | > 10 µg/mL | < 2.5 µg/mL | < 2.5 µg/mL | < 2.5 µg/mL | < 2.5 µg/mL |
| CCCC[C@@H]1CN([C@H](CC2CCCCC2)CN2CCCC2CN2C(N)=NC[C@@H]2C)C(=N)N1CC(C)c1ccc(CC(C)C)cc1 (stereo not given in full) | > 10 µg/mL | > 10 µg/mL | 2.5 µg/mL (≈ 4.03 µM) | < 2.5 µg/mL | > 10 µg/mL | < 2.5 µg/mL |
| CCCC[C@@H]1CN([C@H](Cc2ccc3ccccc3c2)CN2CCCC2CN2C(N)=NC[C@@H]2C)C(=N)N1CC(C)c1ccc(CC(C)C)cc1 (stereo not given in full) | 5 µg/mL (≈ 7.53 µM) | 5 µg/mL (≈ 7.53 µM) | 2.5 µg/mL (≈ 3.77 µM) | 2.5 µg/mL (≈ 3.77 µM) | 2 µg/mL (≈ 3.01 µM) | < 2.5 µg/mL |
| CC(C)Cc1ccc(C(C)CN2C(=N)N([C@H](CC3CCCCC3)CN3CCCC3CN3C(N)=NC[C@@H]3Cc3ccccc3)C[C@@H]2CC2CCCCC2)cc1 (stereo not given in full) | > 10 µg/mL | > 10 µg/mL | 2.5 µg/mL (≈ 3.4 µM) | < 2.5 µg/mL | > 10 µg/mL | < 2.5 µg/mL |
| C[C@H]1CN=C(N)N1CC1CCCN1C[C@H](CC1CCCCC1)N1C[C@@H](CC2CCCCC2)N(CCc2cc(C(F)(F)F)cc(C(F)(F)F)c2)C1=N (stereo not given in full) | > 10 µg/mL | > 10 µg/mL | < 2.5 µg/mL | < 2.5 µg/mL | > 10 µg/mL | < 2.5 µg/mL |
| CC(C)Cc1ccc(C(C)CN2C(=N)N([C@H](CC3CCCCC3)CN3CCCC3CN3C(N)=NC[C@@H]3C)C[C@H]2CC2CCCCC2)cc1 (stereo not given in full) | 5 µg/mL (≈ 7.58 µM) | 5 µg/mL (≈ 7.58 µM) | 2.5 µg/mL (≈ 3.79 µM) | < 2.5 µg/mL | < 2.5 µg/mL | < 2.5 µg/mL |
| N=C1N(CCc2cc(C(F)(F)F)cc(C(F)(F)F)c2)[C@@H](CC2CCCCC2)CN1[C@H](CC1CCCCC1)CN1CCCC1CN1C(N)=NC[C@@H]1Cc1ccccc1 (stereo not given in full) | > 10 µg/mL | > 10 µg/mL | < 2.5 µg/mL | < 2.5 µg/mL | > 10 µg/mL | 2.5 µg/mL (≈ 3.12 µM) |
| CCCC[C@@H]1CN([C@@H](CC2CCCCC2)CN2CCCC2CN2C(N)=NC[C@@H]2C)C(=N)N1CCc1cc(C(F)(F)F)cc(C(F)(F)F)c1 (stereo not given in full) | > 10 µg/mL | > 10 µg/mL | 2.5 µg/mL (≈ 3.65 µM) | 2.5 µg/mL (≈ 3.65 µM) | > 10 µg/mL | > 10 µg/mL |
| CC(C)Cc1ccc(C(C)CN2C(=N)N([C@H](Cc3ccc4ccccc4c3)CN3CCCC3CN3C(N)=NC[C@@H]3C)C[C@H]2CC2CCCCC2)cc1 (stereo not given in full) | > 10 µg/mL | > 10 µg/mL | < 2.5 µg/mL | < 2.5 µg/mL | < 2.5 µg/mL | < 2.5 µg/mL |
| CC(C)Cc1ccc(C(C)CN2C(=N)N([C@H](CC3CCCCC3)CN3CCCC3CN3C(N)=NC[C@@H]3C)C[C@@H]2CC2CCCCC2)cc1 (stereo not given in full) | 5 µg/mL (≈ 7.58 µM) | 5 µg/mL (≈ 7.58 µM) | < 2.5 µg/mL | < 2.5 µg/mL | > 10 µg/mL | < 2.5 µg/mL |
| CCCC[C@@H]1CN([C@H](Cc2ccc3ccccc3c2)CN2CCCC2CN2C(N)=NC[C@@H]2C)C(=N)N1CCc1cc(C(F)(F)F)cc(C(F)(F)F)c1 (stereo not given in full) | > 10 µg/mL | > 10 µg/mL | 2.5 µg/mL (≈ 3.43 µM) | < 2.5 µg/mL | > 10 µg/mL | < 2.5 µg/mL |
| CCCC[C@@H]1CN([C@H](CC2CCCCC2)CN2CCCC2CN2C(N)=NC[C@@H]2Cc2ccccc2)C(=N)N1CC(C)c1ccc(CC(C)C)cc1 (stereo not given in full) | > 10 µg/mL | > 10 µg/mL | < 2.5 µg/mL | < 2.5 µg/mL | < 2.5 µg/mL | < 2.5 µg/mL |
| CCCC[C@@H]1CN([C@H](CC2CCCCC2)CN2CCCC2CN2C(N)=NC[C@@H]2Cc2ccccc2)C(=N)N1CCc1cc(C(F)(F)F)cc(C(F)(F)F)c1 (stereo not given in full) | 5 µg/mL (≈ 6.56 µM) | 5 µg/mL (≈ 6.56 µM) | 2.5 µg/mL (≈ 3.28 µM) | < 2.5 µg/mL | < 2.5 µg/mL | < 2.5 µg/mL |
| N=C1N(CCc2cc(C(F)(F)F)cc(C(F)(F)F)c2)[C@H](CC2CCCCC2)CN1[C@@H](CC1CCCCC1)CN1CCCC1CN1C(N)=NC[C@@H]1Cc1ccccc1 (stereo not given in full) | 5 µg/mL (≈ 6.23 µM) | 5 µg/mL (≈ 6.23 µM) | < 2.5 µg/mL | < 2.5 µg/mL | < 2.5 µg/mL | < 2.5 µg/mL |
| CC(C)Cc1ccc(C(C)CN2C(=N)N([C@H](CC3CCCCC3)CN3CCCC3CN3C(N)=NC[C@@H]3Cc3ccccc3)C[C@H]2CC2CCCCC2)cc1 (stereo not given in full) | 5 µg/mL (≈ 6.79 µM) | 5 µg/mL (≈ 6.79 µM) | < 2.5 µg/mL | < 2.5 µg/mL | > 10 µg/mL | 2.5 µg/mL (≈ 3.4 µM) |
